Counter-ions that a name gives are not always drawn.

With `COc1cccc2c(CCN(CC3CC3)C3COc4c(F)ccc(C(N)=O)c4C3)coc12` (centres unmarked) (as salt: hydrochloride) [Compound 160, 3-{(cyclopropylmethyl)[2-(7-methoxy-1-benzofuran-3-yl)ethyl]amino}-8-fluorochromane-5-carboxamide], the melting point was 130 to 138 °C (dec.). With `CCN(CCCc1coc2c(OC)cccc12)C1COc2c(F)ccc(C(N)=O)c2C1` (centres unmarked) (as salt: hydrochloride) [Compound 162, 3-{ethyl[3-(7-methoxy-1-benzofuran-3-yl)propyl]amino}-8-fluorochromane-5-carboxamide], the melting point was 125 to 128 °C. In turn, `CCCN(CCCc1coc2c(OC)cccc12)C1COc2c(F)ccc(C(N)=O)c2C1` (centres unmarked) (as salt: hydrochloride) [Compound 163, 8-fluoro-3-[[3-(7-methoxy-1-benzofuran-3-yl)propyl](propyl)amino]chromane-5-carboxamide] had a melting point of 123 to 129 °C. Consider `COc1cccc2c(CCCN(C3CCC3)C3COc4c(F)ccc(C(N)=O)c4C3)coc12` (centres unmarked) (as salt: hydrochloride) [Compound 164, 3-{cyclobutyl[3-(7-methoxy-1-benzofuran-3-yl)propyl]amino}-8-fluorochromane-5-carboxamide], for which the melting point was 131 to 140 °C (dec.).

The molecule `COc1cccc2c(CCCN(CC3CC3)C3COc4c(F)ccc(C(N)=O)c4C3)coc12` (centres unmarked) (as salt: hydrochloride) [Compound 165, 3-{(cyclopropylmethyl)[3-(7-methoxy-1-benzofuran-3-yl)propyl]amino}-8-fluorochromane-5-carboxamide] returned a melting point of 125 to 132 °C.

`CCCCN(CCCc1coc2c(OC)cccc12)C1COc2c(F)ccc(C(N)=O)c2C1` (centres unmarked) (as salt: hydrochloride) [Compound 166, 3-{butyl[3-(7-methoxy-1-benzofuran-3-yl)propyl]amino}-8-fluorochromane-5-carboxamide]: the melting point was 110 to 117 °C (dec.). In turn, `CCN(CCCCc1coc2c(OC)cccc12)C1COc2c(F)ccc(C(N)=O)c2C1` (centres unmarked) (as salt: hydrochloride) [Compound 168, 3-{ethyl[4-(7-methoxy-1-benzofuran-3-yl)butyl]amino}-8-fluorochromane-5-carboxamide] showed a melting point of 112 to 118 °C. In the case of `CCCN(CCCCc1coc2c(OC)cccc12)C1COc2c(F)ccc(C(N)=O)c2C1` (centres unmarked) (as salt: hydrochloride) [Compound 169, 8-fluoro-3-[[4-(7-methoxy-1-benzofuran-3-yl)butyl](propyl)amino]chromane-5-carboxamide], the melting point is 99 to 110 °C (dec.). For the molecule `COc1cccc2c(CCCCN(CC3CC3)C3COc4c(F)ccc(C(N)=O)c4C3)coc12` (centres unmarked) (as salt: hydrochloride) [Compound 170, 3-{(cyclopropylmethyl)[4-(7-methoxy-1-benzofuran-3-yl)butyl]amino}-8-fluorochromane-5-carboxamide], the melting point lay within 114 to 120 °C. The same measure for `COc1cccc2c(CCCCN(C3CCC3)C3COc4c(F)ccc(C(N)=O)c4C3)coc12` (centres unmarked) (as salt: hydrochloride) [Compound 171, 3-{cyclobutyl[4-(7-methoxy-1-benzofuran-3-yl)butyl]amino}-8-fluorochromane-5-carboxamide]: 122 to 127 °C (dec.); for `CCCN(CCCCc1coc2c(OC)cccc12)[C@H]1COc2c(F)ccc(C(N)=O)c2C1` (as salt: hydrochloride) [Compound 172, (3R)-8-fluoro-3-[[4-(7-methoxy-1-benzofuran-3-yl)butyl](propyl)amino]chromane-5-carboxamide]: 103 to 111 °C. As for `NC(=O)c1ccc(F)c2c1CC(NCCCn1ccc3ccccc31)CO2` (centres unmarked) (as salt: hydrochloride) [Compound 184, 8-Fluoro-3-{[3-(1H-indol-1-yl)propyl]amino}chromane-5-carboxamide], the melting point fell in the range of 155 to 156 °C. `NC(=O)c1ccc(F)c2c1CC(NCCCCn1ccc3cccc(F)c31)CO2` (centres unmarked) (as salt: hydrochloride) [Compound 188, 8-Fluoro-3-{[4-(7-fluoro-1H-indol-1-yl)butyl]amino}chromane-5-carboxamide] gave a melting point of 166 to 168 °C.

Regarding `COc1cccc2c1CC(N[C@H]1CC[C@@H](c3c[nH]c4ccc(F)cc43)CC1)CO2` (relative stereo) (as salt: hydrochloride) [Compound 181a, cis-N-[4-(5-fluoro-1H-indol-3-yl)cyclohexyl]-5-methoxychroman-3-amine], the melting point is 156.5 °C (dec.). `COc1cccc2c1CC(N[C@H]1CC[C@H](c3c[nH]c4ccc(F)cc43)CC1)CO2` (relative stereo) (as salt: hydrochloride) [Compound 181b, trans-N-[4-(5-fluoro-1H-indol-3-yl)cyclohexyl]-5-methoxychroman-3-amine]: the melting point was 265 °C (dec.). As to `CCCN(C1COc2cccc(OC)c2C1)[C@H]1CC[C@@H](c2c[nH]c3ccc(F)cc32)CC1` (relative stereo) (as salt: hydrochloride) [Compound 182, cis-N-[4-(5-fluoro-1H-indol-3-yl)cyclohexyl]-5-methoxy-N-propylchroman-3-amine], the melting point is 148 °C (dec.). On to `CCCN(C1COc2cccc(OC)c2C1)[C@H]1CC[C@H](c2c[nH]c3ccc(F)cc32)CC1` (relative stereo) (as salt: hydrochloride) [Compound 183, trans-N-[4-(5-fluoro-1H-indol-3-yl)cyclohexyl]-5-methoxy-N-propylchroman-3-amine], for which the melting point is 159 °C (dec.). Regarding `CC(CCc1c[nH]c2c(F)cc(F)cc12)N(CC1CC1)C1COc2c(F)ccc(C(N)=O)c2C1` (single isomer, unassigned) (as salt: HCl) [Compound 154a, 3-{(cyclopropylmethyl)[3-(5,7-difluoro-1H-indol-3-yl)-1-methylpropyl]amino}-8-fluorochromane-5-carboxamide], the melting point was in the range of 160 to 165 °C. As for `NC(=O)c1ccc(F)c2c1CC(NCCCc1c[nH]c3ccc(F)cc13)CO2` (single isomer, unassigned; (+)) (as salt: hydrochloride) [Compound 1a, (+)-8-fluoro-3-{[3-(5-fluoro-1H-indol-3-yl)propyl]amino}chromane-5-carboxamide], the melting point was 89 °C (dec.).

As to `NC(=O)c1ccc(F)c2c1CC(N(CCCc1c[nH]c3ccc(F)cc13)C1CCC1)CO2` (single isomer, unassigned; (+)) (as salt: hydrochloride) [Compound 4a, (+)-3-{cyclobutyl[3-(5-fluoro-1H-indol-3-yl)propyl]amino}-8-fluorochromane-5-carboxamide], the melting point is 129 °C (dec.).

For `CCCN(C(C)CCCc1c[nH]c2ccc(F)cc12)C1COc2c(F)ccc(C(N)=O)c2C1` (single isomer, unassigned; (+)) (as salt: hydrochloride) [Compound 14a, (+)-8-fluoro-3-[[4-(5-fluoro-1H-indol-3-yl)-1-methylbutyl](propyl)amino]chromane-5-carboxamide], the melting point was 148 to 150 °C. Take `CCN(C(C)CCc1c[nH]c2ccc(F)cc12)C1COc2c(F)ccc(C(N)=O)c2C1` (single isomer, unassigned; (+)) (as salt: hydrochloride) [Compound 16b, (+)-3-{ethyl[3-(5-fluoro-1H-indol-3-yl)-1-methylpropyl]amino}-8-fluorochromane-5-carboxamide]: the melting point is 135 °C (dec.). In the case of `CCCN(CCCc1c[nH]c2ccc(F)cc12)C1CCc2c(F)ccc(OC)c2C1` (single isomer, unassigned; (+)) (as salt: hydrochloride) [Compound 51a, (+)-5-fluoro-N-[3-(5-fluoro-1H-indol-3-yl)propyl]-8-methoxy-N-propyl-1,2,3,4-tetrahydro-2-naphthalenamine], the melting point is 117 °C (dec.). Consider `NC(=O)c1ccc(F)c2c1CC(NCCCc1c[nH]c3ccc(F)cc13)CO2` (single isomer, unassigned; (-)) (as salt: hydrochloride) [Compound 1b, (−)-8-fluoro-3-{[3-(5-fluoro-1H-indol-3-yl)propyl]amino}chromane-5-carboxamide], for which the melting point was 87 °C (dec.). For `CCCN(CCCc1c[nH]c2ccc(F)cc12)C1COc2c(F)ccc(C(N)=O)c2C1` (single isomer, unassigned; (-)) (as salt: hydrochloride) [Compound 2a, (−)-8-fluoro-3-[[3-(5-fluoro-1H-indol-3-yl)propyl](propyl)amino]-3,4-dihydro-2H-chromene-5-carboxamide], the melting point is 126 °C (dec.). `NC(=O)c1ccc(F)c2c1CC(N(CCCc1c[nH]c3ccc(F)cc13)CC1CC1)CO2` (single isomer, unassigned; (-)) (as salt: hydrochloride) [Compound 5a, (−)-3-{(cyclopropylmethyl)[3-(5-fluoro-1H-indol-3-yl)propyl]amino}-8-fluorochromane-5-carboxamide]: the melting point was 123 °C (dec.). `CCCN(C(C)CCCc1c[nH]c2ccc(F)cc12)C1COc2c(F)ccc(C(N)=O)c2C1` (single isomer, unassigned; (-)) (as salt: hydrochloride) [Compound 14b, (−)-8-fluoro-3-[[4-(5-fluoro-1H-indol-3-yl)-1-methylbutyl](propyl)amino]chromane-5-carboxamide] returned a melting point of 147 to 150 °C.

Consider `CC(CCc1c[nH]c2ccc(F)cc12)N(CC1CC1)C1COc2c(F)ccc(C(N)=O)c2C1` (single isomer, unassigned; (-)) (as salt: hydrochloride) [Compound 15a, (−)-3-{(cyclopropylmethyl)[3-(5-fluoro-1H-indol-3-yl)-1-methylpropyl]amino}-8-fluorochromane-5-carboxamide], for which the melting point was 135 °C (dec.). The same measure for `CCN(C(C)CCc1c[nH]c2ccc(F)cc12)C1COc2c(F)ccc(C(N)=O)c2C1` (single isomer, unassigned; (-)) (as salt: hydrochloride) [Compound 16a, (−)-3-{ethyl[3-(5-fluoro-1H-indol-3-yl)-1-methylpropyl]amino}-8-fluorochromane-5-carboxamide]: 132 °C (dec.).

By melting point is commonly meant the temperature, or range, at which the solid turns liquid.

The record behind these values is patent US20050032873A1, “3-Amino chroman and 2-amino tetralin derivatives” (Wyeth, priority 2003, published 2005).
